# Assays:
# [1] = test system: MDA-MB-231/ATCC; test: NCI growth inhibition, MDA-MB-231/ATCC (Breast); format: cell-based, human
# [2] = test system: OVCAR-4; test: NCI growth inhibition, OVCAR-4 (Ovarian); format: cell-based, human
# [3] = test system: NCI/ADR-RES; test: NCI growth inhibition, NCI/ADR-RES (Breast); format: cell-based, human
# [4] = test system: PC-3; test: NCI growth inhibition, PC-3 (Prostate); format: cell-based, human
# [5] = test system: 786-0; test: NCI growth inhibition, 786-0 (Renal); format: cell-based, human
# [6] = test system: HL-60(TB); format: cell-based, human
# [7] = test system: NCI-H322M; test: NCI growth inhibition, NCI-H322M (NSC Lung); format: cell-based, human
# [8] = test system: HCC-2998; test: NCI growth inhibition, HCC-2998 (Colon); format: cell-based, human
# [9] = test system: EKVX; test: NCI growth inhibition, EKVX (NSC Lung); format: cell-based, human
# [10] = test system: NCI-H460; test: NCI growth inhibition, NCI-H460 (NSC Lung); format: cell-based, human
# [11] = test system: UO-31; test: NCI growth inhibition, UO-31 (Renal); format: cell-based, human
# [12] = test system: SK-MEL-28; test: NCI growth inhibition, SK-MEL-28 (Melanoma); format: cell-based, human
# [13] = test system: SK-MEL-2; test: NCI growth inhibition, SK-MEL-2 (Melanoma); format: cell-based, human
# [14] = test system: COLO 205; test: NCI growth inhibition, COLO 205 (Colon); format: cell-based, human
# [15] = test system: HT29; test: NCI growth inhibition, HT29 (Colon); format: cell-based, human
# [16] = test system: HCT-15; test: NCI growth inhibition, HCT-15 (Colon); format: cell-based, human
# [17] = test system: KM12; test: NCI growth inhibition, KM12 (Colon); format: cell-based, human
# [18] = test system: HS 578T; test: NCI growth inhibition, HS 578T (Breast); format: cell-based, human
# [19] = test system: SF-295; test: NCI growth inhibition, SF-295 (CNS); format: cell-based, human
# [20] = test system: SNB-19; test: NCI growth inhibition, SNB-19 (CNS); format: cell-based, human
# [21] = test system: NCl human cancer cell-lines; test: In vitro inhibition of growth in NCI human cancer cell lines, all cell groups; format: cell-based; conditions: all cell groups tested
# [22] = test system: HOP-62; test: NCI growth inhibition, HOP-62 (NSC Lung); format: cell-based, human
# [23] = test system: OVCAR-8; test: NCI growth inhibition, OVCAR-8 (Ovarian); format: cell-based, human
# [24] = test system: MDA-MB-435; test: NCI growth inhibition, MDA-MB-435 (Breast); format: cell-based, human
# [25] = target: PKCδ-C1B (Homo sapiens (Human), UniProt Q05655); test: PKCδ-C1B Assay; format: binding
# PKCδ-C1B, sequence (Q05655 whole entry, looked up): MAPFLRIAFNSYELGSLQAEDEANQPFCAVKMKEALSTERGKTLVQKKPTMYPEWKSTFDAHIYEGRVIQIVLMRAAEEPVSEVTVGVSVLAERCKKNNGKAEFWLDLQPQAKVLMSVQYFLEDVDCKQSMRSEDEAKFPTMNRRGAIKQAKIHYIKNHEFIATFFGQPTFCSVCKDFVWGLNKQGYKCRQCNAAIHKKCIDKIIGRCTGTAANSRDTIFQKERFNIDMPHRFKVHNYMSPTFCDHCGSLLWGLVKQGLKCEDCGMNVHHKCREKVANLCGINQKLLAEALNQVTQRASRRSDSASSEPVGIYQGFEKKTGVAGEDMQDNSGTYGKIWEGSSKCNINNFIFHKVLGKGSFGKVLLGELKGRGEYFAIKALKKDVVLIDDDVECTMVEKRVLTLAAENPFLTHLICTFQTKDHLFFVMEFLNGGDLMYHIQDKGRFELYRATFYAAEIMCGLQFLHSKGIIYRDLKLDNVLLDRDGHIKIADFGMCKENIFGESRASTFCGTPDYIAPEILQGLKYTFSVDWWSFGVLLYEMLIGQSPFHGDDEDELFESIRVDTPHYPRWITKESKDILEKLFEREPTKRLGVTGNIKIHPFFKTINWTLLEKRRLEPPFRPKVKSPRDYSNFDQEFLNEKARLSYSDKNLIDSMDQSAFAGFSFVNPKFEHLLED
# [26] = test system: SNB-75; test: NCI growth inhibition, SNB-75 (CNS); format: cell-based, human
# [27] = test system: DU-145; test: NCI growth inhibition, DU-145 (Prostate); format: cell-based, human
# [28] = test system: K-562; test: NCI growth inhibition, K-562 (Leukemia); format: cell-based, human
# [29] = test system: CCRF-CEM; test: NCI growth inhibition, CCRF-CEM (Leukemia); format: cell-based, human
# [30] = test system: T-47D; test: NCI growth inhibition, T-47D (Breast); format: cell-based, human
# [31] = test system: CAKI-1; test: NCI growth inhibition, CAKI-1 (Renal); format: cell-based, human
# [32] = test system: A498; test: NCI growth inhibition, A498 (Renal); format: cell-based, human
# [33] = test system: LOX IMVI; test: NCI growth inhibition, LOX IMVI (Melanoma); format: cell-based, human
# [34] = test system: UACC-257; test: NCI growth inhibition, UACC-257 (Melanoma); format: cell-based, human
# [35] = test system: A549/ATCC; test: NCI growth inhibition, A549/ATCC (NSC Lung); format: cell-based, human
# [36] = test system: OVCAR-5; test: NCI growth inhibition, OVCAR-5 (Ovarian); format: cell-based, human
# [37] = test system: ACHN; test: NCI growth inhibition, ACHN (Renal); format: cell-based, human
# [38] = test system: SN12C; test: NCI growth inhibition, SN12C (Renal); format: cell-based, human
# [39] = test system: SF-268; test: NCI growth inhibition, SF-268 (CNS); format: cell-based, human
# [40] = test system: MCF7; test: NCI growth inhibition, MCF7 (Breast); format: cell-based, human
smiles,measurement,setting,value
CCCCCCCC(=O)OC1C(=CC(=O)OC)CC2CC(CO)OC(=O)CC(O)CC3CCCC(CC4CCOC(C=CC(C)(C)C1(O)O2)O4)O3 (centres unmarked) [Formula IIa (702.1)],"Difference of GI50 (log), Desmethyl vs Bryo-1",[1],−0.49
same,GI50,[1]; Breast,−5.69 log of molar concentration
same,"Difference of GI50 (log), Desmethyl vs Bryo-1",[2]; OVCAR-4,0.35
same,GI50,"[2]; OVCAR-4, Ovarian",−5.15 log of molar concentration
same,GI50,[3],−4.74 log of molar concentration
same,"Difference of GI50 (log), Desmethyl vs Bryo-1",[4]; PC-3,−0.30
same,GI50,"[4]; PC-3, Prostate",−5.6 log of molar concentration
same,"Difference of GI50 (log), Desmethyl vs Bryo-1",[5]; 786-0,−0.26
same,GI50,"[5]; 786-0, Renal",−5.46 log of molar concentration
same,"Difference of GI50 (log), Desmethyl vs Bryo-1",[6],−0.14
same,GI50,[6],−5.84 log of molar concentration
same,"Difference of GI50 (log), Desmethyl vs Bryo-1",[7],1.62
same,GI50,[7]; NSC Lung,−4.38 log of molar concentration
same,"Difference of GI50 (log), Desmethyl vs Bryo-1",[8]; HCC-2998,−2.24
same,GI50,"[8]; HCC-2998, Colon",−7.54 log of molar concentration
same,more active than bryostatin-1,"[8]; HCC-2998, Colon",more than 2 orders of magnitude
same,"Difference of GI50 (log), Desmethyl vs Bryo-1",[9],−0.28
same,GI50,[9]; NSC Lung,−5.58 log of molar concentration
same,"Difference of GI50 (log), Desmethyl vs Bryo-1",[10]; NCI-H460,−2.40
same,GI50,"[10]; NCI-H460, NSC Lung",<−8 log of molar concentration
same,more active than bryostatin-1,"[10]; NCI-H460, NSC Lung",more than 2 orders of magnitude
same,"Difference of GI50 (log), Desmethyl vs Bryo-1",[11]; UO-31,0.75
same,GI50,"[11]; UO-31, Renal",−4.85 log of molar concentration
same,"Difference of GI50 (log), Desmethyl vs Bryo-1",[12]; SK-MEL-28,0.43
same,GI50,"[12]; SK-MEL-28, Melanoma",−4.67 log of molar concentration
same,"Difference of GI50 (log), Desmethyl vs Bryo-1",[13]; SK-MEL-2,0.18
same,GI50,"[13]; SK-MEL-2, Melanoma",−5.02 log of molar concentration
same,"Difference of GI50 (log), Desmethyl vs Bryo-1",[14]; COLO 205,−1.68
same,GI50,"[14]; COLO 205, Colon",−7.08 log of molar concentration
same,"Difference of GI50 (log), Desmethyl vs Bryo-1",[15]; HT29,−0.25
same,GI50,"[15]; HT29, Colon",−5.55 log of molar concentration
same,GI50,[16],−4.76 log of molar concentration
same,"Difference of GI50 (log), Desmethyl vs Bryo-1",[17]; KM12,−0.14
same,GI50,"[17]; KM12, Colon",−5.34 log of molar concentration
same,"Difference of GI50 (log), Desmethyl vs Bryo-1",[18],0.02
same,GI50,[18]; Breast,−5.18 log of molar concentration
same,"Difference of GI50 (log), Desmethyl vs Bryo-1",[19]; SF-295,−0.85
same,GI50,"[19]; SF-295, CNS",−6.05 log of molar concentration
same,"Difference of GI50 (log), Desmethyl vs Bryo-1",[20]; SNB-19,−0.20
same,GI50,"[20]; SNB-19, CNS",−5.2 log of molar concentration
same,"potency relative to bryostatin-1, on average",[21],"at least as potent, on average, as bryostatin-1"
same,GI50,[22],−4.79 log of molar concentration
same,"Difference of GI50 (log), Desmethyl vs Bryo-1",[23]; OVCAR-8,0.33
same,GI50,"[23]; OVCAR-8, Ovarian",−4.77 log of molar concentration
same,"Difference of GI50 (log), Desmethyl vs Bryo-1",[24]; MDA-MB-435,−2.56
same,GI50,"[24]; MDA-MB-435, Breast",−7.66 log of molar concentration
same,more active than bryostatin-1,"[24]; MDA-MB-435, Breast",more than 2 orders of magnitude
same,activity in PKCδ-C1B assay relative to comparison analogues,"[25]; 702.1 vs C26 methyl-containing analogue, 48, 49 vs other C20 esters",significantly higher activity
same,Ki,"[25]; competition with tritiated phorbol 12,13-dibutyrate",0.3 ± 0.07 nM
same,"Difference of GI50 (log), Desmethyl vs Bryo-1",[26]; SNB-75,0.53
same,GI50,"[26]; SNB-75, CNS",−4.97 log of molar concentration
same,"Difference of GI50 (log), Desmethyl vs Bryo-1",[27]; DU-145,−0.02
same,GI50,"[27]; DU-145, Prostate",−5.02 log of molar concentration
same,"Difference of GI50 (log), Desmethyl vs Bryo-1",[28]; K-562,−2.10
same,GI50,"[28]; K-562, Leukemia",−7.5 log of molar concentration
same,more active than bryostatin-1,"[28]; K-562, Leukemia",more than 2 orders of magnitude
same,"Difference of GI50 (log), Desmethyl vs Bryo-1",[29],−0.51
same,GI50,[29]; Leukemia,−5.81 log of molar concentration
same,"Difference of GI50 (log), Desmethyl vs Bryo-1",[30],0.18
same,GI50,[30]; Breast,−5.02 log of molar concentration
same,"Difference of GI50 (log), Desmethyl vs Bryo-1",[31]; CAKI-1,−0.30
same,GI50,"[31]; CAKI-1, Renal",−5.7 log of molar concentration
same,"Difference of GI50 (log), Desmethyl vs Bryo-1",[32]; A498,−1.38
same,GI50,"[32]; A498, Renal",−6.38 log of molar concentration
same,"Difference of GI50 (log), Desmethyl vs Bryo-1",[33],−0.37
same,GI50,[33]; Melanoma,−5.47 log of molar concentration
same,"Difference of GI50 (log), Desmethyl vs Bryo-1",[34]; UACC-257,−0.03
same,GI50,"[34]; UACC-257, Melanoma",−5.13 log of molar concentration
same,"Difference of GI50 (log), Desmethyl vs Bryo-1",[35],−1.42
same,GI50,[35]; NSC Lung,−6.62 log of molar concentration
same,"Difference of GI50 (log), Desmethyl vs Bryo-1",[36]; OVCAR-5,−0.28
same,GI50,"[36]; OVCAR-5, Ovarian",−5.28 log of molar concentration
same,"Difference of GI50 (log), Desmethyl vs Bryo-1",[37],−0.44
same,GI50,[37]; Renal,−5.94 log of molar concentration
same,"Difference of GI50 (log), Desmethyl vs Bryo-1",[38],−0.49
same,GI50,[38]; Renal,−5.59 log of molar concentration
same,"Difference of GI50 (log), Desmethyl vs Bryo-1",[39]; SF-268,0.13
same,GI50,"[39]; SF-268, CNS",−4.97 log of molar concentration
same,"Difference of GI50 (log), Desmethyl vs Bryo-1",[40]; MCF7,−0.20
same,GI50,"[40]; MCF7, Breast",−5.4 log of molar concentration

# Source: US8497385B2, “Bryostatin analogues, synthetic methods and uses” (The Board of Trustees of the Leland Stanford Junior …, priority 2007, dated 2013)
